{"source": "patent US7767194B2", "about": "“Optical diagnostic and therapeutic agents and compositions” (Mallinckrodt Inc., priority 2000, dated 2010)", "key": {"[1]": {"assay": "Imaging of individual organs removed from CA20948 tumor-bearing rat", "assay_type": "in vivo", "protocol": "Individual organs were removed at about 24 hours post Cytate 1 administration and imaged."}, "[2]": {"assay": "Monitoring of the blood clearance profile of peptide-dye conjugates", "assay_type": "in vivo", "conditions": "rat ear, bolus injection in lateral tail vein, 830 nm after excitation at 780 nm", "from_the_text": "A laser of appropriate wavelength for excitation of the dye chromophore was directed into one end of a fiber optic bundle and the other end was positioned a few millimeters from the ear of a rat. A second fiber optic bundle was also positioned near the same ear to detect the emitted fluorescent light and the other end was directed into the optics and electronics for data collection. An interference filter (IF) in the collection optics train was used to select emitted fluorescent light of the appropriate wavelength for the dye chromophore.\nAfter the animals had achieved the desired plane of anesthesia, a 21 gauge butterfly with 12″ tubing was placed in the lateral tail vein of each animal and flushed with heparinized saline. The animals were placed onto a heating pad and kept warm throughout the entire study. The lobe of the left ear was affixed to a glass microscope slide to reduce movement and vibration.\nIncident laser light delivered from the fiber optic was centered on the affixed ear. Data acquisition was then initiated, and a background reading of fluorescence was obtained prior to administration of the test agent. […] This procedure was repeated with several dye-peptide conjugates in normal and tumor bearing rats. […] The data were analyzed using a standard sigma plot software program for a one compartment model."}, "[3]": {"tested_on": "Rat pancreatic acinar carcinoma expressing the SST-2 receptor (CA20948)", "assay": "Non-invasive in vivo fluorescence imaging of rat pancreatic acinar carcinoma (CA20948)", "from_the_text": "(§1) A non-invasive in vivo fluorescence imaging apparatus was employed to assess the efficacy of contrast agents developed for tumor detection in animal models. A LaserMax Inc. laser diode of nominal wavelength 780 nm and nominal power of 40 mW was used. The detector was a Princeton Instruments model RTE/CCD-1317-K/2 CCD camera with a Rodenstock 10 mm F2 lens (stock #542.032.002.20) attached. An 830 nm interference […] (CVI Laser Corp., part # F10-830-4-2) was mounted in front of the CCD input lens such that only emitted fluorescent light from the contrast agent was imaged. Typically, an image of the animal was taken pre-injection of contrast agent. This image was subsequently subtracted (pixel by pixel) from the post injection images. However, the background subtraction was […] done once the animal had been removed from the sample area and returned at a later time for images taken several hours post injection.\nDSL 6A tumors were induced in male Lewis rats in the left flank area by the introduction of material from a solid (donor) implant and the tumors were palpable in approximately 14 days. The animals were anesthetized with xylazine; ketamine; acepromazine 1.5:1.5:0.5 at 0.8 mL/kg via intramuscular injection. The area of the tumor (left flank) was shaved to expose tumor and surrounding surface area. A 21 gauge butterfly equipped with a stopcock and two syringes containing heparinized saline was placed into the later tail vein of the rat. Patency of the vein was checked prior to administration of the ICG via the butterfly apparatus. Each animal received […] of a 0.42 mg/mL solution of ICG in water.\nThe imaging apparatus and the procedure used are described in Example 12. Rat pancreatic acinar carcinoma expressing the SST-2 receptor (CA20948) was induced by solid implant technique in the left flank area, and palpable masses were detected nine days post implant. The images obtained at 2 and 30 minutes post injection are shown in FIG. 7E-F. FIGS. 7E-F are images of a rat with an induced pancreatic acinar carcinoma (CA20948) expressing the SST-2 receptor imaged at two minutes (FIG. 7E) and 30 minutes (FIG. 7F) post injection.\nThe imaging apparatus and the procedure used are described in Example 12 except that each animal received 500 μl of a 1.0 mg/mL solution of Cytate 1 solution of 25% dimethylsulfoxide in water.\nRat pancreatic acinar carcinoma expressing the SST-2 receptor (CA20948) were induced by solid implant technique in the left flank area, and palpable masses were detected 24 days post implant. Images were obtained at various times post injection.\nCytate 1 was evaluated in the CA20948 Lewis rat model. […] At 27 hours post injection, the animal was again imaged (FIG. 9B)."}, "DSL 6A tumors": {"tested_on": "DSL 6A tumors", "assay": "Non-invasive in vivo fluorescence imaging of pancreatic ductal adenocarcinoma (DSL 6A)", "parameters": "species or system rat", "from_the_text": "as §1\nDSL 6A tumors were induced in male Lewis rats in the left flank area by the introduction of material from a solid (donor) implant and the tumors were palpable in approximately 14 days. The animals were anesthetized with xylazine; ketamine; acepromazine 1.5:1.5:0.5 at 0.8 mL/kg via intramuscular injection. The area of the tumor (left flank) was shaved to expose tumor and surrounding surface area. […]"}, "[4]": {"tested_on": "Prostatic carcinoma tumor (Dunning R3327-H)", "assay": "Non-invasive in vivo fluorescence imaging of prostatic carcinoma (R3327-H)", "parameters": "species or system rat"}, "[5]": {"conditions": "organ removed about 24 hours post administration"}, "[6]": {"conditions": "tissue removed about 24 hours post administration"}, "[7]": {"conditions": "CA20948 tumor, 45 minutes post injection"}}, "data": [{"smiles": "C[C@@H](O)[C@H](NC(=O)[C@@H]1CSSC[C@H](NC(=O)[C@@H](Cc2ccccc2)NC(=O)CCN2C(=CC=CC=CC=CC3=[N+](CCC(=O)O)c4ccc5ccccc5c4C3(C)C)C(C)(C)c3c2ccc2ccccc32)C(=O)N[C@@H](Cc2ccc(O)cc2)C(=O)N[C@H](Cc2c[nH]c3ccccc23)C(=O)N[C@@H](CCCCN)C(=O)N[C@@H]([C@@H](C)O)C(=O)N1)C(=O)O", "note": "[Cytate 1, monoOctreotate-Bismethylcarboxymethylindocyanine dye]", "values": [{"measurement": "uptake in adrenals", "setting": "[1]; [5]", "value": "high uptake"}, {"measurement": "uptake in heart", "setting": "[1]; [5]", "value": "significantly lower uptake"}, {"measurement": "uptake in liver", "setting": "[1]; [5]", "value": "significantly lower uptake"}, {"measurement": "uptake in pancreas", "setting": "[1]; [5]", "value": "high uptake"}, {"measurement": "uptake in spleen", "setting": "[1]; [5]", "value": "significantly lower uptake"}, {"measurement": "uptake in muscle", "setting": "[1]; [6]", "value": "significantly lower uptake"}, {"measurement": "uptake in tumor tissue", "setting": "[1]; [6]", "value": "high uptake"}, {"measurement": "fluorescence signal in blood after injection (rise)", "setting": "[2]", "value": "rapidly increased to a peak value"}, {"measurement": "fluorescence signal in blood over time (clearance)", "setting": "[2]", "value": "decayed as a function of time"}, {"measurement": "localization of dye in the tumor", "setting": "[3]; CA20948 Lewis rat model, 45 minutes post injection", "value": "localization of this dye was observed in the tumor"}, {"measurement": "tumor visualization", "setting": "[3]; CA20948 Lewis rat model, 27 hours post injection", "value": "easily observed"}, {"measurement": "time course of uptake into the tumor", "setting": "[3]; CA20948 tumor, 500 μl of 1.0 mg/mL in 25% dimethylsulfoxide in water", "value": "seen at two minutes but was not maximal until about five minutes"}, {"measurement": "uptake (dye fluorescence) in tumor at 45 minutes", "setting": "[3]; [7]", "value": "still quite intense"}, {"measurement": "persistence of dye fluorescence in the tumor", "setting": "[3]; CA20948 tumor, post-injection", "value": "remained intense in the tumor for several hours"}]}, {"smiles": "C[C@@H](O)[C@H](NC(=O)[C@@H]1CSSC[C@H](NC(=O)[C@@H](Cc2ccccc2)NC(=O)CCN2C(=CC=CC=CC=CC3=[N+](CCC(=O)N[C@H](Cc4ccccc4)C(=O)N[C@H]4CSSC[C@@H](C(=O)N[C@H](C(=O)O)[C@@H](C)O)NC(=O)[C@H]([C@@H](C)O)NC(=O)[C@H](CCCCN)NC(=O)[C@@H](Cc5c[nH]c6ccccc56)NC(=O)[C@H](Cc5ccc(O)cc5)NC4=O)c4ccc5ccccc5c4C3(C)C)C(C)(C)c3c2ccc2ccccc32)C(=O)N[C@@H](Cc2ccc(O)cc2)C(=O)N[C@H](Cc2c[nH]c3ccccc23)C(=O)N[C@@H](CCCCN)C(=O)N[C@@H]([C@@H](C)O)C(=O)N1)C(=O)O", "note": "[Cytate 2, bisOctreotate-Bismethylcarboxymethylindocyanine dye]", "values": [{"measurement": "fluorescence signal in blood after injection (rise)", "setting": "[2]", "value": "rapidly increased to a peak value"}, {"measurement": "fluorescence signal in blood over time (clearance)", "setting": "[2]", "value": "decayed as a function of time"}]}, {"smiles": "CC1(C)C(/C=C/C=C/C=C/C=C2\\N(CCCCS(=O)(=O)O)c3ccc4ccccc4c3C2(C)C)=[N+](CCCCS(=O)(=O)[O-])c2ccc3ccccc3c21", "note": "[ICG, indocyanine green]", "values": [{"measurement": "perfusion of the agent into the tumor", "setting": "[3]; CA20948 (pancreatic) tumor line, CCD camera", "value": "only a slight but transient perfusion that was absent after only 30 minutes post injection"}, {"measurement": "dye intensity in the tumor", "setting": "[3]; CA20948 tumor, 30 minutes post-ICG injection (vs two minutes)", "value": "considerably diminished and almost absent"}, {"measurement": "uptake (dye fluorescence) in tumor at 45 minutes", "setting": "[3]; [7]", "value": "mostly cleared"}, {"measurement": "perfusion of the agent into the tumor", "setting": "DSL 6A tumors; DSL 6/A (pancreatic) tumor line, CCD camera", "value": "slow perfusion of the agent over time into the tumor"}, {"measurement": "dye intensity in the tumor", "setting": "DSL 6A tumors; DSL 6A tumor, male Lewis rats, 30 minutes post-ICG injection (vs two minutes), tail vein bolus 0.5 ml aqueous solution", "value": "considerably diminished"}, {"measurement": "perfusion of the agent into the tumor", "setting": "[4]; Dunning R3327H (prostate) tumor line, CCD camera", "value": "slow perfusion of the agent over time into the tumor"}, {"measurement": "dye intensity in the tumor", "setting": "[4]; R3327-H tumor, Copenhagen rats, 30 minutes post-ICG injection (vs two minutes)", "value": "considerably diminished"}]}]}
